PMC7899551, “Phase 1 study of Z-endoxifen in patients with advanced gynecologic, desmoid, and hormone receptor-positive solid tumors” (Oncotarget, 2021)
Where “and” joins values, the source holds several entries; their conditions need not be identical. Identical values can stand only once. Values belong to the compound of their own block, whether it stands above or below them.

What was measured:
[1] = system: ERβ; conditions: cited from earlier work
[2] = system: ERα; conditions: cited from earlier work
[3] = Plasma pharmacokinetics of Z-endoxifen (HPLC assay, non-compartmental analysis); format: in vivo, human
Description: This was an open-label trial of Z-endoxifen in patients with advanced solid tumors (https://clinicaltrials.gov/ identifier: NCT01273168). Z-endoxifen-HCl was supplied by the Pharmaceutical Management Branch, National Cancer Institute, as 20 and 40 mg capsules; agent was administered orally once daily on a continuous schedule in 28-day cycles with a starting dose of 20 mg/day taken either 1 hour before or 2 hours after meals. Dose escalation followed a traditional 3+3 design in which patients were dose-escalated to the next dose level (DL) in cohorts of 3 patients until dose-limiting toxicity (DLT) was observed. DLT was defined as an adverse event that occurred during cycle 1, was thought to be related to study drug administration, and met one of the following criteria: grade ≥ 3 non-hematologic toxicities (except diarrhea, nausea and vomiting, alopecia, rising creatinine or electrolyte toxicities that resolved within 24 hours, or intolerable estrogen withdrawal symptoms) or grade ≥ 3 hematologic toxicities (except neutropenia lasting less than 5 days, lymphopenia, or anemia). Eight dose levels (DL1-8) were examined: 20, 40, 60, 100, 140, 200, 280, and 360 mg, respectively. Two patients at DL8 received the free base form of Z-endoxifen on day 1 rather than the hydrochloride salt to assess the pharmacokinetics of that formulation.
A 3-mL blood sample was collected in a K2 EDTA tube on day 1 of cycle 1 before drug administration and at the following times post-first dose: 0.5, 1, 2, 3, 4, 6, 8, and 24 hours. Samples were collected at the same time points on day 28 of cycle 1 for DL1-6 until a protocol amendment eliminated the requirement for these samples at the higher dose levels. Samples were wrapped in aluminum foil after collection to protect from light exposure. A 10-mL aliquot of urine was collected before agent administration on cycle 1 day 1, for 24 hours after dosing on day 1, and before drug administration on cycle 2 day 1; samples were refrigerated prior to analysis.
Plasma and urine concentrations of Z- and E-endoxifen were measured using a validated, post-column fluorescence derivatization HPLC assay. Non-compartmental pharmacokinetic parameters were calculated using WinNonlin version 7.0 (Pharsight Corp., Mountainview, CA, USA). A 2 μM Cmax target was established for day 28 plasma concentration. The amount of Z-endoxifen excreted in urine was measured over a 24-hour collection period.

[4] = system: ovarian cancer; conditions: patients with ovarian cancer; cited from earlier work
[5] = system: hormone-refractory prostate cancer; conditions: 200 mg/m^2/day, men with hormone-refractory prostate cancer; cited from earlier work
[6] = system: metastatic ER+ breast cancer; conditions: women with metastatic ER+ breast cancer; cited from earlier work
[7] = free base, 360 mg oral, day 1, mean of patients 35 and 36
[8] = free base, 360 mg oral, day 1, patients 35 and 36 individually

Compound: 4-hydroxy-tamoxifen
binding affinity relative to tamoxifen or NDM-tamoxifen [1]: approximately 100 fold
binding affinity relative to tamoxifen or NDM-tamoxifen [2]: approximately 100 fold

Plasma concentration as percentage of Z-endoxifen levels ([3]; after oral Z-endoxifen): < 2%
Compound: CC/C(=C(/c1ccc(O)cc1)c1ccc(OCCNC)cc1)c1ccccc1 [E-endoxifen]

Compound: CC/C(=C(\c1ccc(O)cc1)c1ccc(OCCNC)cc1)c1ccccc1 [Endoxifen, 4-hydroxy-N-desmethyl-tamoxifen]
binding affinity relative to tamoxifen or NDM-tamoxifen [1]: approximately 100 fold
binding affinity relative to tamoxifen or NDM-tamoxifen [2]: approximately 100 fold

Compound: CC/C(=C(\c1ccc(O)cc1)c1ccc(OCCNC)cc1)c1ccccc1 [free base form of Z-endoxifen]
AUC(0–24 h), Mean [3, 7]: 25248 ng·h/mL
C24 h, Mean [3, 7]: 790 ng/mL
Cmax, Mean [3, 7]: 1770 ng/mL
Tmax, Mean [3, 7]: 5.0 h
AUC(0–24 h) [3, 8]: 8959 ng·h/mL and 41537 ng·h/mL
C24h [3, 8]: 12 ng/mL and 1568 ng/mL
Tmax [3, 8]: 6.0 h and 4.0 h

Compound: CC/C(=C(\c1ccccc1)c1ccc(OCCN(C)C)cc1)c1ccccc1 [tamoxifen]
complete responses [4]: 4%
partial responses [4]: 9%
stable disease [4]: 38%
mean plasma tamoxifen concentration [5]: 2.94 (± 1.15) μM
women deriving benefit [6]: about 50%
